This is an account of results in PubChem BioAssay (NCI).

Molecules are shown by their SMILES. Values joined by “and” are separate entries in the source; they are usually repeats but may differ in a detail not shown here. Identical values can stand only once.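 Values below derive from 48-hour exposures of cells grown in 96-well plates, with endpoints linearly interpolated between the two concentrations bracketing the appropriate inhibition level. Here, GI50 denotes the concentration required for 50% inhibition of growth. TGI marks complete inhibition of growth.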 Some results are limits rather than exact numbers.

Some test systems named below: SNB-19 CNS; K-562 leukemia; NCI-H460 lung; HCC-2998 colon; HT29 colon; NCI-H226 lung; OVCAR-5 ovarian; SK-OV-3 ovarian; OVCAR-8 ovarian; SF-268 CNS.
Common to all, as to test: NCI-60 cell line screen, 48 h

Turning to `CC(C)C[C@@H]1NC(=O)[C@@H]2CCCN2C(=O)[C@@H]2CCCN2C(=O)[C@H](CC(C)C)NC(=O)[C@H](CO)NC(=O)[C@H](CCCCN)NC(=O)[C@H]([C@H](C)O)NC(=O)[C@@H]2CCCC[C@@H](NC1=O)C(=O)N[C@@H](Cc1ccccc1)C(=O)N1CCC[C@H]1C(=O)N[C@@H](CC(=O)O)C(=O)NCC(=O)N[C@@H](CCCN=C(N)N)C(=O)N2`, the GI50 in the test with SNB-19 CNS, in the test with K-562 leukemia, in the test with NCI-H460 lung, in the test on HCC-2998 colon, with HT29 colon and in the test with NCI-H226 lung was over 50 µM throughout. For the same compound, the GI50 in the test on OVCAR-5 ovarian, in the test on SK-OV-3 ovarian, in the test with OVCAR-8 ovarian and in the test with SF-268 CNS was over 50 µM in each case. Besides, the TGI in the test with SNB-19 CNS, in the test with K-562 leukemia, with NCI-H460 lung, in the test with HCC-2998 colon, in the test with HT29 colon and in the test with NCI-H226 lung was over 50 µM each time. In addition, the TGI with OVCAR-5 ovarian, in the test on SK-OV-3 ovarian, with OVCAR-8 ovarian and with SF-268 CNS was over 50 µM throughout.
With `C=CC(=O)Nc1cccc(C)c1Nc1ncc2cc(-c3c(Cl)c(OC)cc(OC)c3Cl)ccc2n1`, the GI50 is 4.14 µM in the test with SNB-19 CNS; 3.89 µM in the test on K-562 leukemia; 1.64 µM with NCI-H460 lung; 12.4 µM with HCC-2998 colon; 6.31 µM with HT29 colon; 3.18 µM in the test on NCI-H226 lung. For the same compound, the GI50 with OVCAR-5 ovarian was 17.9 µM; in the test on SK-OV-3 ovarian, 18.3 µM; with OVCAR-8 ovarian, 4.83 µM; with SF-268 CNS, 3.69 µM. Further, the TGI in the test with SNB-19 CNS was 47.1 µM; in the test on K-562 leukemia it was over 100 µM; in the test with NCI-H460 lung, 11.5 µM; in the test on HCC-2998 colon, 31.9 µM; in the test on HT29 colon, 67.7 µM; in the test on NCI-H226 lung, 18.1 µM. For the same compound, the TGI in the test on OVCAR-5 ovarian was over 100 µM; in the test with SK-OV-3 ovarian it was 82.6 µM; in the test on OVCAR-8 ovarian, 47 µM; in the test with SF-268 CNS, 38.6 µM.
Consider `COc1ccc2c(c1)CC1c3c(cc4c(c3-2)OCO4)CCN1C` (stereo not drawn), for which the TGI with SNB-19 CNS was over 100 µM; in the test on K-562 leukemia, over 100 µM; in the test on NCI-H460 lung it was 60.4 µM; with HCC-2998 colon it was over 100 µM; in the test on HT29 colon it was over 100 µM; in the test on NCI-H226 lung, 64.9 µM. In addition, the values for the TGI with OVCAR-5 ovarian, in the test with SK-OV-3 ovarian and with OVCAR-8 ovarian were over 100 µM, 69.1 µM and 70.4 µM, respectively.
As to `COc1cc(/C=C2/C(=O)NC(Cc3cc(OC)c(OC)c(C)c3OC)C(=O)N2Cc2ccccc2)c(OC)c(C)c1OC` (stereo not drawn), the TGI in the test with SNB-19 CNS, in the test on K-562 leukemia, in the test with NCI-H460 lung, with HCC-2998 colon, in the test on HT29 colon and in the test with NCI-H226 lung was over 100 µM in each case. Moreover, the TGI in the test with OVCAR-5 ovarian, in the test with SK-OV-3 ovarian, in the test on OVCAR-8 ovarian and with SF-268 CNS was over 100 µM throughout.
Take `C/C(=C\CC[C@]1(C)OC(C)(C)OC1CC/C(C)=C/CO[Si](c1ccccc1)(c1ccccc1)C(C)(C)C)CC/C=C/CO[Si](C)(C)C(C)(C)C` (stereo partly drawn): the TGI with SNB-19 CNS, in the test with K-562 leukemia, in the test on NCI-H460 lung, in the test with HCC-2998 colon, in the test with HT29 colon and in the test on NCI-H226 lung was over 100 µM each time. The TGI with OVCAR-5 ovarian, in the test with SK-OV-3 ovarian, with OVCAR-8 ovarian and in the test with SF-268 CNS was over 100 µM each time.
Take `CC(C)CCc1c(Cl)nc(Cl)nc1Cl`: the TGI was 39 µM with SNB-19 CNS; over 100 µM in the test on K-562 leukemia; 39.7 µM with NCI-H460 lung; 64 µM in the test with HCC-2998 colon; 28.9 µM in the test on HT29 colon; 14.6 µM in the test with NCI-H226 lung. Besides, the TGI in the test with OVCAR-5 ovarian was 55 µM; with SK-OV-3 ovarian, 37.6 µM; in the test with SF-268 CNS it was over 100 µM.
On to `Cc1ccc(S(=O)(=O)Nc2nc3ccccc3nc2Nc2ccc3nsnc3c2)cc1`, for which the GI50 with SNB-19 CNS is 3.29 µM and 3.54 µM; in the test on K-562 leukemia it was 3.7 µM and 2.82 µM; with NCI-H460 lung it was 3.36 µM and 2.92 µM; in the test on HCC-2998 colon, 3.47 µM and 3.67 µM; in the test with HT29 colon, 6.78 µM and 3.1 µM; with NCI-H226 lung, 5.38 µM and 7.55 µM. Further, the GI50 is 17.4 µM and > 81.2 µM in the test with OVCAR-5 ovarian; 4.76 µM with SK-OV-3 ovarian; 4.3 µM and 4.19 µM with OVCAR-8 ovarian; 3.93 µM and 4.35 µM with SF-268 CNS. Further, the TGI was over 100 µM in the test with SNB-19 CNS; over 100 µM in the test with K-562 leukemia; 70.7 µM and > 100 µM in the test on NCI-H460 lung; 42.9 µM and > 100 µM in the test with HCC-2998 colon; over 100 µM in the test on HT29 colon; over 100 µM with NCI-H226 lung. Further, the TGI in the test on OVCAR-5 ovarian, in the test with SK-OV-3 ovarian, with OVCAR-8 ovarian and in the test with SF-268 CNS was over 100 µM each time.
For `COC(=O)[C@@]1(O)C[C@H]2O[C@]1(C)n1c3ccccc3c3c4c(c5c6ccccc6n2c5c31)C(=O)NC4`, the GI50 in the test with SNB-19 CNS is 1.1 µM; in the test on K-562 leukemia, 0.0397 µM; with NCI-H460 lung, 0.121 µM; in the test on HCC-2998 colon it was 0.609 µM; in the test with HT29 colon it was 0.212 µM; in the test on NCI-H226 lung, 0.32 µM. The GI50 was 0.21 µM in the test on OVCAR-5 ovarian, 0.0336 µM in the test on SK-OV-3 ovarian, 0.589 µM in the test with OVCAR-8 ovarian and 0.63 µM with SF-268 CNS. The TGI was 4.05 µM with SNB-19 CNS; 1.28 µM with K-562 leukemia; 1.38 µM with NCI-H460 lung; 2.8 µM with HCC-2998 colon; 2.09 µM in the test with HT29 colon; 1.72 µM in the test on NCI-H226 lung. The TGI with OVCAR-5 ovarian amounted to 8.12 µM; in the test with SK-OV-3 ovarian, 0.926 µM; in the test on OVCAR-8 ovarian it was 4.08 µM; in the test with SF-268 CNS it was 3.17 µM.
`COc1ccc2nc(C)cc(Nc3ccccc3O)c2c1`: the GI50 with SNB-19 CNS is 76.5 µM; in the test with K-562 leukemia, 17.8 µM; in the test with NCI-H460 lung, 19.4 µM; in the test with HCC-2998 colon, 17.6 µM; in the test with HT29 colon it was 23.9 µM; in the test on NCI-H226 lung it was 28 µM. Further, the GI50 is 28.9 µM with OVCAR-5 ovarian, over 100 µM with SK-OV-3 ovarian, 24.8 µM in the test on OVCAR-8 ovarian and 29.2 µM in the test with SF-268 CNS. In addition, the TGI with SNB-19 CNS is over 100 µM; in the test on K-562 leukemia it was 64.8 µM; in the test on NCI-H460 lung it was 54.4 µM; in the test with HCC-2998 colon, 34.3 µM; in the test on HT29 colon it was over 100 µM; in the test on NCI-H226 lung, over 100 µM. For the same compound, the TGI with OVCAR-5 ovarian is over 100 µM; in the test on SK-OV-3 ovarian, over 100 µM; in the test on OVCAR-8 ovarian it was 69.7 µM; in the test with SF-268 CNS it was over 100 µM.
